The source made the active and inactive calls.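 Rule for the calls: active = compounds whose fitted IC50 falls under 25000 nM; inactive = the rest.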
Target: Serine/threonine-protein phosphatase 5 (Homo sapiens) (UniProt P53041)
Experiment: PP5 inhibitor IC50 with OMFP, dose response, biochemical, fluorescence, round 5, 3.8 nM low dose (AID 624433)
Conditions: purified PP5c, OMFP dephosphorylation

Chain of Serine/threonine-protein phosphatase 5 (Homo sapiens) (P53041 whole entry, looked up): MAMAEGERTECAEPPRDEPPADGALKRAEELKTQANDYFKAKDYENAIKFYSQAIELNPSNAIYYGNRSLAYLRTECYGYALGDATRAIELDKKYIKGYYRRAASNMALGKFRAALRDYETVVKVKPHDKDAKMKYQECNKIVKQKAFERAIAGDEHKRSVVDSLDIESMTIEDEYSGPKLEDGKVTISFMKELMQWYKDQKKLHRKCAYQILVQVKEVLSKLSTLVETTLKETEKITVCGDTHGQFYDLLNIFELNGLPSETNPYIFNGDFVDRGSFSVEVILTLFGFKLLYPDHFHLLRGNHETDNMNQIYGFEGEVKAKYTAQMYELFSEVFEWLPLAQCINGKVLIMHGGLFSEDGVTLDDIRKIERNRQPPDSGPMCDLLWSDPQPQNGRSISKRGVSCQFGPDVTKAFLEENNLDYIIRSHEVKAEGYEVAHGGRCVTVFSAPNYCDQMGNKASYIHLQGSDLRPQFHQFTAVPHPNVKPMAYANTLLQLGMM

CC(C)c1ccccc1-c1n[nH]nc1C(=O)O
IC50: inactive

CCc1ccccc1-c1n[nH]nc1C(=O)O
IC50: 19.9 µM

CCOc1ccccc1-c1n[nH]nc1C(=O)O
IC50: 3.62 µM

Cc1ccccc1-c1n[nH]nc1C(=O)O
IC50: 16.1 µM

O=C(O)c1n[nH]nc1-c1ccccn1
IC50: inactive

CC(C)Oc1ccccc1-c1n[nH]nc1C(=O)O
IC50: 2.86 µM

O=C(O)c1n[nH]nc1-c1ccccc1-c1ccccc1
IC50: inactive
